From patent US10385034B2, “Flavonoid IL-17A inhibitors” (THE CLEVELAND CLINIC FOUNDATION, priority 2014, dated 2019)
“Also recorded” adds a separate entry of the source.

What was measured:
IL-17A-IL-17RA binding = target: T1, IL-17A-IL-17RA binding (Homo sapiens, UniProt Q96F46); test: IL-17A-IL-17RA binding assay (ELISA); details: serial dilutions of compound
T1 construct: human IL-17RA-Fc (extracellular domain 1-322 AA fused with Fc region of human IgG1 at the C-terminus); purchased Sino Biological Inc
Protocol: IL-17A-IL-17RA binding assay. ELISA plates were coated with human IL-17A or IL-17E (2 μg/ml in PBS). Human IL-17RA-Fc or human IL-17RB-Fc (150 ng/ml) were added and incubated for 1 h, followed by incubation with human HRP-conjugated anti human IgG Fc secondary antibody for 1 h. ELISA were finally developed using tetramethylbenzidine substrate.

IL-17RA ECD = target: T2, IL-17RA ECD (Homo sapiens, UniProt Q96F46); test: Surface plasmon resonance (Biacore) binding to immobilized IL-17RA; details: SPR, IL-17RA immobilized on CM5 chip
T2 construct: using purified the extracellular domain (ECD) of human IL-17RA
Protocol: Surface plasmon resonance (SPR). Binding of A18 to IL-17RA was conducted on Biacore T100 instrument. Purified IL-17RA was immobilized on CM5 sensor chip using amine coupling kit (GE healthcare). A18 of different concentrations were flown over the chip in PBSPP+ buffer (20 mM Phosphate, 2.7 mM KCl, 137 mM NaCl and 0.05% P20, pH 7.4). The chip was regenerated with 2M GnHCl. Binding KD was determined by Biaevaluation software.

A549 cells = test: IL-17A-induced CXCL1 (Groα) production, ELISA; format: cell-based, human; details: A549, IL-17 100 ng/ml, 24 h
Excerpt: Reagents, cell culture and mice. Purified proteins of human IL-17A, human IL-17E (IL-25), human IL-17RA-Fc (extracellular domain 1-322 AA fused with Fc region of human IgG1 at the C-terminus), human IL-17RB-Fc (extracellular domain 1-289 AA fused with Fc region of human IgG1 at the C-terminus), human horseradish peroxidase (HRP)-conjugated IgG Fc secondary antibody were purchased from Sino Biological Inc. Human and mouse IL-17A and mouse IL-23 used for cell culture and animal injection were purchased from R&D Systems. Human mammary epithelial cells were maintained in Medium 171 plus mammary epithelial growth supplement (MEGS) purchased from Invitrogen, which contain bovine pituitary extract (BPE) (0.4% v/v), recombinant human insulin-like growth factor-I (1 μg/ml), hydrocortisone (0.5 μg/ml) and human epidermal growth factor (3 ng/ml). A549 cells were maintained in RPMI supplemented with 10% FCS and 100 U/ml penicillin and 100 μg/ml streptomycin. All mice were obtained from Jackson laboratory.
ELISA. Groα and IL-17A levels were assayed by ELISA kits (R&D systems) according to the manufacturer's instruction.

HFD-induced AHR = test: High-fat-diet-induced airway hyperreactivity; format: in vivo; details: A18 30 μg per mouse i.p., last 10 days of HFD
Protocol: High-fat-diet intervention. Starting at 4 weeks of age, WT C57BL/6 male mice were fed with 10 kcal % fat chow diet (CD) or a 60 kcal % HFD for 14 weeks. HFD+A18 group of mice were i.p. injected with A18 (30 μg per mouse) daily for 10 days before subjection to AHR measurement. Both CD (D12450B) or HFD (D12492) were obtained from Research Diets, Inc. Measurement of AHR. AHR was measured in mice in response to increasing doses of inhaled methacholine. Mice were anesthetized with i.p. pentobarbital sodium (60 mg/kg). After the intubation and the placement of a 19-gauge cannula through a tracheotomy incision, the cannula was affixed with a silk suture ligation. Mice were connected to a computer-controlled piston ventilator run at a rate of 150 breaths/min, a tidal volume of 0.2 ml, and a positive end-expiratory pressure of 2-3 cm H2O (Flexivent). Mice were then administered a muscle relaxant (pancuronium bromide, 800 mg/kg), and the lungs were expanded twice to total lung capacity at an amplitude pressure of 30 cm H2O. […] Lung resistance (RL) was obtained through forced oscillation technique by FlexiVent 5.2 (Flexivent; Scireq) software. Real-time PCR. […] All gene expression results are expressed as arbitrary units relative to expression of the gene encoding beta-actin.

[1] = system: HDM-induced allergic airway disease; test: House dust mite (HDM)-induced asthma; format: in vivo; details: C57BL/6 mice, A18 30 μg per mouse i.p. daily
Protocol: Measurement of AHR. AHR was measured in mice in response to increasing doses of inhaled methacholine. Mice were anesthetized with i.p. pentobarbital sodium (60 mg/kg). After the intubation and the placement of a 19-gauge cannula through a tracheotomy incision, the cannula was affixed with a silk suture ligation. Mice were connected to a computer-controlled piston ventilator run at a rate of 150 breaths/min, a tidal volume of 0.2 ml, and a positive end-expiratory pressure of 2-3 cm H2O (Flexivent). Mice were then administered a muscle relaxant (pancuronium bromide, […]), and the lungs were expanded twice to total lung capacity at an amplitude pressure of 30 cm H2O. Each mouse was aerosolized with methacholine in saline at doses of 0 mg/ml, 12.5 mg/ml, 25 mg/ml, and 50 mg/ml, delivered over 10 s through an in-line nebulizer. Lung resistance (RL) was obtained through forced oscillation technique by FlexiVent 5.2 (Flexivent; Scireq) software. House dust mite (HDM)-induced asthma. WT C57BL/6 mice were sensitized intratracheally (i.t.) with HDM (Dermatophagoides farina, 100 μg per mouse, Greer Laboratories) on day 0 and subsequently challenged (i.t.) with HDM (100 μg per mouse) from day 7 for 5 days. […] All gene expression results are expressed as arbitrary units relative to expression of the gene encoding beta-actin.

[2] = system: IL-17A-induced epidermal hyperplasia; test: Intradermal injection of IL-17A (skin epidermal hyperplasia); format: in vivo, mouse
Protocol: Intradermal injection of IL-17A. The ears of 8-week WT C57BL/6 female mice were injected intradermally with 20 μl PBS, either alone or containing 500 ng recombinant mouse IL-17A with or without A18 (30 μg per mouse). After 7 days after injection, the mice ears were fixed in 10% formalin in PBS and stained with hematoxylin and eosin (H&E). Epidermal thickness was quantified by Image J.
Real-time PCR. Total RNA was extracted from spinal cords and cultured astrocytes with TRIzol (Invitrogen) according to the manufacturer's instructions. All gene expression results are expressed as arbitrary units relative to expression of the gene encoding beta-actin.

T1 sequence (Q96F46 33-322): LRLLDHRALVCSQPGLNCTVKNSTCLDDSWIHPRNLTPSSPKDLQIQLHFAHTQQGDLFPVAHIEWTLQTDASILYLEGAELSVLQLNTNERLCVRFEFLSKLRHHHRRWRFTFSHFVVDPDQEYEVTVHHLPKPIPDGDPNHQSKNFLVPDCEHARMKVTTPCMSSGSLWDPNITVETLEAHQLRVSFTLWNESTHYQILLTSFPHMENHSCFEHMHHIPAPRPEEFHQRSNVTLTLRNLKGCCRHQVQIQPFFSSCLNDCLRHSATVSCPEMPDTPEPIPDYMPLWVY
T2 sequence (Q96F46 33-320 limits assumed): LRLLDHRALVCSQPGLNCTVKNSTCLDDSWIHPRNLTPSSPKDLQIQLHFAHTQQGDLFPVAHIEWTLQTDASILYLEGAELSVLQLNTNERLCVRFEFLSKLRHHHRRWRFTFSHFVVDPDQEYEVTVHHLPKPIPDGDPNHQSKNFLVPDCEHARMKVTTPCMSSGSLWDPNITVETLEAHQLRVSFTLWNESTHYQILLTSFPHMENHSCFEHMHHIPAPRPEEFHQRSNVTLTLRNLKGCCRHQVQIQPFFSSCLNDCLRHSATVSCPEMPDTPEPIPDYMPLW

Oc1cc(O)c2cc(O)c(-c3ccc(O)c(O)c3)[o+]c2c1.[Cl-] [A18, 2-(3,4-Dihydroxyphenyl)-3,5,7-trihydroxy-1-benzopyrylium chloride] was tested, and the “Inhibition of IL-17A-IL-17RA binding” value (IL-17A-IL-17RA binding) was “excellent inhibition efficacy; also recorded: great inhibition efficacy”, the Kd (IL-17RA ECD) was 0.225 µM and the “IL-17A-mediated CXCL1 production” value (A549 cells) was “greatly inhibited”. The “HFD-induced AHR” value (HFD-induced AHR; C57Bl/6 mice) was “substantially attenuated”, the “HFD-induced inflammatory gene expression in lung” value (HFD-induced AHR; C57Bl/6 mice) was “substantially attenuated” and the “HFD-induced production of IL-17A in the lung” value (HFD-induced AHR; cultured lung cells) was “no impact”. For the same molecule, the “HDM-induced AHR” value [1] was “reduced”, the “HDM-induced inflammatory gene expression” value [1] was “reduced” and the IL-17A-dependent epidermal hyperplasia ([2]; C57Bl/6 ears, IL-17A 500 ng with A18 30 μg per mouse intradermal, 6 consecutive days) was “greatly reduced”. For the same molecule, the “Levels of C-myc, Pled and Steap4 in IL-17A-treated ears” value ([2]; RT-PCR) was “attenuated”.
